# Assays:
# [1] = system: S. aureus VSSA (ATCC 6538); test: MIC, broth microdilution, vancomycin-sensitive S. aureus (VSSA/MSSA, ATCC 6538); format: cell-based, Staphylococcus aureus; details: for MIC: Staphylococcus aureus VSSA, read-out: MIC; for MIC-fold improvement vs. vancomycin: VSSA, ratio of MIC of vancomycin and MIC of analogue
# Summary of the method: (§1)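 CLSI broth microdilution; water and uninoculated-broth controls; one arm supplemented with vancomycin, final 10 μM, given with analogue or control antibiotic.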
# [2] = system: MRSA KS89; test: MIC, broth microdilution, MRSA KS89; format: cell-based, Staphylococcus aureus; details: for MIC-fold improvement vs. vancomycin: MRSA KS8, ratio of MIC of vancomycin and MIC of analogue; for MIC: Staphylococcus aureus MRSA KS8, read-out: MIC
# Summary of the method: as §1
# [3] = system: E. faecalis VRE 6; test: MIC, broth microdilution, vancomycin-resistant E. faecalis VRE 6 (VanA); format: cell-based, Enterococcus faecalis; details: for MIC: Enterococcus faecalis VRE 6 (vancomycin-resistant), read-out: MIC; for MIC-fold improvement vs. vancomycin: VRE 6, ratio of MIC of vancomycin and MIC of analogue
# Summary of the method: as §1
# [4] = system: E. faecalis VRE 37; test: MIC, broth microdilution, vancomycin-resistant E. faecalis VRE 37 (VanA); format: cell-based, Enterococcus faecalis; details: for MIC: Enterococcus faecalis VRE 37 (vancomycin-resistant), read-out: MIC; for MIC-fold improvement vs. vancomycin: VRE 37, ratio of MIC of vancomycin and MIC of analogue
# Summary of the method: as §1
# [5] = system: S. aureus VRSA; test: MIC, broth microdilution, vancomycin-resistant S. aureus (VRSA); format: cell-based, Staphylococcus aureus; details: for MIC: Staphylococcus aureus VRSA, read-out: MIC; for MIC-fold improvement vs. vancomycin: VRSA, ratio of MIC of vancomycin and MIC of analogue
# Summary of the method: as §1
# [6] = system: L1210, CEM and HeLa cell lines; test: Cytostatic activity, average or summary over L1210, CEM and HeLa; format: cell-based; details: average of L1210, CEM and HeLa; read-out: Toxicity (IC50) Average
# Summary of the method: (§2)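 Coulter counter cell counts after 37°C culture with compound; IC50 = concentration giving 50% growth inhibition vs negative control. Incubation: L1210 2 d, CEM 3 d, HeLa 4 d. Suspension density before mixing with an equal volume of dilution: 300,000–500,000 cells/mL.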
# [7] = system: Murine leukemia (L1210) cells; test: Cytostatic activity, L1210 cell proliferation; format: cell-based; details: mean ± SD of three experiments; highest concentration tested 250 µM; 2 days; read-out: Toxicity (IC50) L1210
# Summary of the method: as §2
# [8] = system: MRSA KS6; test: MIC, broth microdilution, MRSA KS6; format: cell-based, Staphylococcus aureus; details: for MIC-fold improvement vs. vancomycin: MRSA KS6, ratio of MIC of vancomycin and MIC of analogue; for MIC: Staphylococcus aureus MRSA KS6, read-out: MIC
# Summary of the method: as §1
# [9] = system: E. faecalis VRE 29; test: MIC, broth microdilution, vancomycin-resistant E. faecalis VRE 29 (VanA); format: cell-based, Enterococcus faecalis; details: for MIC: Enterococcus faecalis VRE 29 (vancomycin-resistant), read-out: MIC; for MIC-fold improvement vs. vancomycin: VRE 29, ratio of MIC of vancomycin and MIC of analogue
# Summary of the method: as §1
# [10] = system: human cervix carcinoma (HeLa) cells; test: Cytostatic activity, HeLa cell proliferation; format: cell-based; details: mean ± SD of three experiments; highest concentration tested 250 µM; 4 days; read-out: Toxicity (IC50) HeLa
# Summary of the method: as §2
# [11] = system: human T-lymphocyte (CEM) cells; test: Cytostatic activity, CEM cell proliferation; format: cell-based; details: mean ± SD of three experiments; highest concentration tested 250 µM; 3 days; read-out: Toxicity (IC50) CEM
# Summary of the method: as §2
# [12] = system: MRSA KS2; test: MIC, broth microdilution, MRSA KS2; format: cell-based, Staphylococcus aureus; details: for MIC-fold improvement vs. vancomycin: MRSA KS2, ratio of MIC of vancomycin and MIC of analogue; for MIC: Staphylococcus aureus MRSA KS2, read-out: MIC
# Summary of the method: as §1
# [13] = system: E. faecalis VSE 1; test: MIC, broth microdilution, vancomycin-sensitive E. faecalis (VSE 1); format: cell-based, Enterococcus faecalis; details: for MIC: Enterococcus faecalis VSE 1 (vancomycin-sensitive), read-out: MIC; for MIC-fold improvement vs. vancomycin: VSE 1, ratio of MIC of vancomycin and MIC of analogue
# Summary of the method: as §1
# [14] = system: MRSA KS1; test: MIC, broth microdilution, MRSA KS1; format: cell-based, Staphylococcus aureus; details: for MIC-fold improvement vs. vancomycin: MRSA KS1, ratio of MIC of vancomycin and MIC of analogue; for MIC: Staphylococcus aureus MRSA KS1, read-out: MIC
# Summary of the method: as §1
# [15] = system: E. faecalis VRE 53; test: MIC, broth microdilution, vancomycin-resistant E. faecalis VRE 53 (VanA); format: cell-based, Enterococcus faecalis; details: for MIC: Enterococcus faecalis VRE 53 (vancomycin-resistant), read-out: MIC; for MIC-fold improvement vs. vancomycin: VRE 53, ratio of MIC of vancomycin and MIC of analogue
# Summary of the method: as §1
# [16] = system: S. aureus VISA/HIP5827; test: MIC, broth microdilution, vancomycin-intermediate S. aureus VISA HIP5827; format: cell-based, Staphylococcus aureus; details: for MIC: Staphylococcus aureus VISA/HIP5827, read-out: MIC; for MIC-fold improvement vs. vancomycin: VISA/HIP5827, ratio of MIC of vancomycin and MIC of analogue
# Summary of the method: as §1
MIC [1] [µM],MIC-fold improvement vs. vancomycin [1],MIC-fold improvement vs. vancomycin [2],MIC [2] [µM],MIC [3] [µM],MIC-fold improvement vs. vancomycin [3],MIC [4] [µM],MIC [5] [µM],MIC-fold improvement vs. vancomycin [5],MIC-fold improvement vs. vancomycin [8],MIC [8] [µM],MIC [9] [µM],MIC-fold improvement vs. vancomycin [12],MIC [12] [µM],MIC [13] [µM],MIC-fold improvement vs. vancomycin [13],SMILES,IC50 [6] [µM],IC50 [7] [µM],IC50 [10] [µM],IC50 [11] [µM],further results
0.39,2,2,0.39,6.25,32,25,12.5,8,1,0.78,12.5,2,0.39,0.78,2,CNC(CC(C)C)C(=O)NC1C(=O)NC(CC(N)=O)C(=O)NC2C(=O)NC3C(=O)NC(C(=O)NC(C(=O)NCC(=O)Nc4cccc(OC)c4)c4cc(O)cc(O)c4-c4cc3ccc4O)C(O)c3ccc(c(Cl)c3)Oc3cc2cc(c3OC2OC(CO)C(O)C(O)C2OC2CC(C)(N)C(O)C(C)O2)Oc2ccc(cc2Cl)C1O (centres unmarked) [Vanc-12],231,> 250,194 ± 78,> 250,MIC-fold improvement vs. vancomycin [14]: 2; MIC [14]: 0.39 µM; MIC [15]: 12.5 µM; MIC-fold improvement vs. vancomycin [15]: 32; MIC [16]: 0.39 µM; MIC-fold improvement vs. vancomycin [16]: 16
0.39,2,2,0.39,12.5,16,3.13,3.13,32,2,0.39,12.5,4,0.20,0.39,4,CCc1ccc(NC(=O)CNC(=O)[C@H]2NC(=O)[C@H]3NC(=O)[C@H](NC(=O)[C@@H]4NC(=O)[C@H](CC(N)=O)NC(=O)[C@H](NC(=O)[C@@H](CC(C)C)NC)[C@H](O)c5ccc(c(Cl)c5)Oc5cc4cc(c5O[C@@H]4O[C@H](CO)[C@@H](O)[C@H](O)[C@H]4O[C@H]4C[C@](C)(N)[C@H](O)[C@H](C)O4)Oc4ccc(cc4Cl)[C@H]3O)c3ccc(O)c(c3)-c3c(O)cc(O)cc32)cc1 [Vanc-13],216,> 250,149 ± 6,> 250,MIC-fold improvement vs. vancomycin [4]: 256; MIC-fold improvement vs. vancomycin [14]: 2; MIC [14]: 0.39 µM; MIC [15]: 12.5 µM; MIC-fold improvement vs. vancomycin [15]: 32; MIC [16]: 0.39 µM; MIC-fold improvement vs. vancomycin [16]: 16
0.78,1,1,0.78,6.25,32,25,12.5,8,1,0.78,12.5,2,0.39,1.56,1,CN[C@H](CC(C)C)C(=O)N[C@H]1C(=O)N[C@@H](CC(N)=O)C(=O)N[C@H]2C(=O)N[C@H]3C(=O)N[C@H](C(=O)N[C@H](C(=O)NCC(=O)Nc4ccc(C)cc4C)c4cc(O)cc(O)c4-c4cc3ccc4O)[C@H](O)c3ccc(c(Cl)c3)Oc3cc2cc(c3O[C@@H]2O[C@H](CO)[C@@H](O)[C@H](O)[C@H]2O[C@H]2C[C@](C)(N)[C@H](O)[C@H](C)O2)Oc2ccc(cc2Cl)[C@H]1O [Vanc-15],196,> 250,87 ± 12,> 250,MIC-fold improvement vs. vancomycin [4]: 16; MIC-fold improvement vs. vancomycin [9]: 32; MIC-fold improvement vs. vancomycin [14]: 1; MIC [14]: 0.78 µM; MIC [15]: 25 µM; MIC-fold improvement vs. vancomycin [15]: 16; MIC [16]: 1.56 µM; MIC-fold improvement vs. vancomycin [16]: 4
0.78,1,1,0.78,12.5,16,50,25,4,1,0.78,>50,1,0.78,0.78,2,CN[C@H](CC(C)C)C(=O)N[C@H]1C(=O)N[C@@H](CC(N)=O)C(=O)N[C@H]2C(=O)N[C@H]3C(=O)N[C@H](C(=O)N[C@H](C(=O)NCC(=O)Nc4ccc(F)cc4F)c4cc(O)cc(O)c4-c4cc3ccc4O)[C@H](O)c3ccc(c(Cl)c3)Oc3cc2cc(c3O[C@@H]2O[C@H](CO)[C@@H](O)[C@H](O)[C@H]2O[C@H]2C[C@](C)(N)[C@H](O)[C@H](C)O2)Oc2ccc(cc2Cl)[C@H]1O [Vanc-16],228,> 250,184 ± 60,> 250,MIC-fold improvement vs. vancomycin [4]: 8; MIC-fold improvement vs. vancomycin [9]: <8; MIC-fold improvement vs. vancomycin [14]: 1; MIC [14]: 0.78 µM; MIC [15]: 25 µM; MIC-fold improvement vs. vancomycin [15]: 16; MIC [16]: 0.78 µM; MIC-fold improvement vs. vancomycin [16]: 8
0.78,1,1,0.78,6.25,32,50,12.5,8,1,0.78,25,2,0.39,0.78,2,CN[C@H](CC(C)C)C(=O)N[C@H]1C(=O)N[C@@H](CC(N)=O)C(=O)N[C@H]2C(=O)N[C@H]3C(=O)N[C@H](C(=O)N[C@H](C(=O)NCC(=O)Nc4cc(OC)cc(OC)c4)c4cc(O)cc(O)c4-c4cc3ccc4O)[C@H](O)c3ccc(c(Cl)c3)Oc3cc2cc(c3O[C@@H]2O[C@H](CO)[C@@H](O)[C@H](O)[C@H]2O[C@H]2C[C@](C)(N)[C@H](O)[C@H](C)O2)Oc2ccc(cc2Cl)[C@H]1O [Vanc-17],206,> 250,119 ± 48,> 250,MIC-fold improvement vs. vancomycin [4]: 8; MIC-fold improvement vs. vancomycin [9]: 16; MIC-fold improvement vs. vancomycin [14]: 1; MIC [14]: 0.78 µM; MIC [15]: 25 µM; MIC-fold improvement vs. vancomycin [15]: 16; MIC [16]: 0.78 µM; MIC-fold improvement vs. vancomycin [16]: 8

# Reference: publication PMC6001238, “Iterative Chemical Engineering of Vancomycin Leads to Novel Vancomycin Analogs With a High in Vitro Therapeutic Index” (Frontiers in Microbiology, 2018)
